According to patent US9521846B2, “Template-fixed peptidomimetics with antimicrobial activity” (priority 2006, dated 2016):
Values after ≈ are worked out from the molar mass of the structure shown. Non-standard residues stand in square brackets, D forms with d. Residues, ends and D or L forms follow the SMILES beside them. Chg = N[C@H](C(=O)O)C1CCCCC1; dDab = NCC[C@@H](N)C(=O)O; Orn = NCCC[C@H](N)C(=O)O; Dab = NCC[C@H](N)C(=O)O

Columns and labels:
[1] = tested on: P. aeruginosa ATCC 27853; type: cell-based, Pseudomonas aeruginosa; conditions: ATCC 27853
Description: (§1) The selective antimicrobial activities of the peptides were determined in 96-well plates (Nunclon polystyrene) by the standard NCCLS broth microdilution method (see ref 1, below) with slight modifications. Innocula of the microorganisms were diluted into Mueller-Hinton (MH) broth+0.02% BSA and compared with a 0.5 Mcfarland standard to give appr. 10^6 colony forming units (CFU)/ml. Aliquots (50 μl) of inoculate were added to 50 μl of MH broth+0.02% BSA containing the peptide in serial two-fold dilutions. The following microorganisms were used to determine antibiotic selectivity of the peptides: Escherichia coli (ATCC 25922), Pseudomonas aeruginosa (P. aeruginosa ATCC 27853, P8191900, P1021903, P1021913, IMP 1 Livermore 3140).

[2] = tested on: human red blood cells (hRBC); assay: Hemolysis; type: cell-based; conditions: 100
Description: Hemolysis of red blood cells is often employed for assessment of toxicity of related compounds such as protegrin or tachyplesin. Values are given as %-lysis of red blood cells observed at a concentration of 100 μg/ml. Typical values determined for cationic peptides such as protegrin and tachyplesin range between 30-40% with average MIC-values of 1-5 μg/ml over a wide range of pathogens.
The peptides were tested for their hemolytic activity against human red blood cells (hRBC). Fresh hRBC were washed three times with phosphate buffered saline (PBS) by centrifugation for 10 min at 2000×g. Peptides at a concentration of 100 μM were incubated with 20% v/v hRBC for 1 hour at 37° C. The final erythrocyte concentration was approximately 0.9×10^9 cells per ml. A value of 0% and, respectively, 100% cell lysis was determined by incubation of the hRBC in the presence of PBS alone and, respectively, 0.1% Triton X-100 in H2O. The samples were centrifuged, the supernatant was 20-fold diluted in PBS buffer and the optical density (OD) of the sample at […] was measured. The 100% lysis value (OD540H20) gave an OD540 of approximately 1.3-1.8. Percent hemolysis was calculated as follows: (OD540peptide/OD540H20)×100%.

[3] = tested on: HELA cells (Acc57); assay: Cytotoxicity assay, MTT reduction (LC 50, GI 50); type: cell-based
Description: The cytotoxicity of the peptides to HELA cells (Acc57) and COS-7 cells (CRL-1651) was determined using the MIT reduction assay [see ref. 2 and 3, below]. Briefly the method was as follows: HELA cells and COS-7 cells were seeded at 7.0×10^3 and, respectively, 4.5×10^3 cells per well and grown in 96-well […] plates for 24 hours at 37° C. at 5% CO2. At this point, time zero (Tz) was determined by MTT reduction (see below). The supernatant of the remaining wells was discarded, and fresh medium and the peptides in serial dilutions of 12.5, 25 and 50 μM were dispensed into the wells. Each peptide concentration was assayed in triplicate. Incubation of the cells was continued for 48 hours at 37° C. at 5% CO2. Wells were then washed once with phosphate buffered saline (PBS) and subsequently 100 μl MIT reagent (0.5 mg/ml in medium RPMI1640 and, respectively, DMEM) were added to the wells. This was incubated at 37° C. for 2 hours and subsequently the medium was aspirated and 100 μl isopropanol were added to each well. The absorbance at 595 nm of the solubilized product was measured (OD595peptide). For each concentration averages were calculated from triplicates. The percentage of growth was calculated as follows: (OD595peptide-OD595Tz-OD595Empty well)/(OD595Tz-OD595Empty well)×100% and was plotted for each peptide concentration.
The LC 50 values (Lethal Concentration, defined as the concentration that kills 50% of the cells) were determined for each peptide by using the trend line function of EXCEL (Microsoft Office 2000) for the concentrations (50, 25, 12.5 and 0 μM), the corresponding growth percentages and the value −50, (=TREND(C50:C0,%50:%0,−50)). The GI 50 (Growth Inhibition) concentrations were calculated for each peptide by using a trend line function for the concentrations (50, 25, 12.5 and 0 […]), the corresponding percentages and the value 50, (=TREND (C50:C0,%50:%0,50).

[4] = tested on: Pseudomonas aeruginosa IMP 1 Livermore 3140; type: cell-based; conditions: IMP 1 Livermore 3140
Description: as §1

[5] = tested on: Pseudomonas aeruginosa P8191900; type: cell-based; conditions: P8191900
Description: as §1

[6] = tested on: Pseudomonas aeruginosa P1021913; type: cell-based; conditions: P1021913
Description: as §1

[7] = tested on: Pseudomonas aeruginosa P1021903; type: cell-based; conditions: P1021903
Description: as §1

[8] = tested on: P. aeruginosa

Structure (SMILES) | MIC P. aeruginosa ATCC 27853 [1] | MIC P. aeruginosa IMP1 Livermore 3140 [4] | MIC P. aeruginosa P8191900 [5] | MIC P. aeruginosa P1021913 [6] | MIC P. aeruginosa P1021903 [7] | Average MIC [8] | Hemolysis at 100 μg/ml [2] | Cytotoxicity GI50 Hela cells [3]
CC[C@H](C)[C@@H]1NC(=O)[C@H](Cc2c[nH]c3ccccc23)NC(=O)[C@H]([C@@H](C)O)NC(=O)[C@@H]2CCCN2C(=O)[C@H]2CCCN2C(=O)[C@H](CCN)NC(=O)[C@H](C)NC(=O)[C@H](CCN)NC(=O)[C@H](CCN)NC(=O)[C@H](Cc2ccc(O)cc2)NC(=O)[C@H](CCN)NC(=O)[C@H](CCN)NC(=O)[C@H](CCCCN)NC(=O)[C@H](CCN)NC1=O [Example 20] (cyclo(TWI[Dab]K[Dab][Dab]Y[Dab][Dab]A[Dab][dP]P)) | 0.21 µg/mL (≈ 0.135 µM) | 1.25 µg/mL (≈ 0.802 µM) | 0.40 µg/mL (≈ 0.257 µM) | 0.31 µg/mL (≈ 0.199 µM) | 0.21 µg/mL (≈ 0.135 µM) | 0.48 µg/mL | 0.2% | 50 µM
CC[C@H](C)[C@@H]1NC(=O)[C@H](Cc2c[nH]c3ccccc23)NC(=O)[C@H]([C@@H](C)O)NC(=O)[C@@H]2CCCN2C(=O)[C@H]2CCCN2C(=O)[C@H](CCN)NC(=O)[C@H](C(C)C)NC(=O)[C@H](CCN)NC(=O)[C@H](CCN)NC(=O)[C@H](Cc2c[nH]c3ccccc23)NC(=O)[C@H](CCN)NC(=O)[C@H](CCN)NC(=O)[C@H](CCCCN)NC(=O)[C@H](CCC(N)=O)NC1=O [Example 30] (cyclo(TWIQK[Dab][Dab]W[Dab][Dab]V[Dab][dP]P)) | 0.09 µg/mL (≈ 0.055 µM) | 2.00 µg/mL (≈ 1.22 µM) | 0.13 µg/mL (≈ 0.0794 µM) | 0.50 µg/mL (≈ 0.305 µM) | 0.30 µg/mL (≈ 0.183 µM) | 0.60 µg/mL | 0.5% | 46 µM
CC[C@H](C)[C@@H]1NC(=O)[C@H](Cc2c[nH]c3ccccc23)NC(=O)[C@H]([C@@H](C)O)NC(=O)[C@@H]2CCCN2C(=O)[C@H]2CCCN2C(=O)[C@H](CCN)NC(=O)[C@@H](C(C)C)NC(=O)[C@H](CCN)NC(=O)[C@H](CCN)NC(=O)[C@H](Cc2c[nH]c3ccccc23)NC(=O)[C@H](CCN)NC(=O)[C@H](CCN)NC(=O)[C@H](CCCCN)NC(=O)[C@H](CCN)NC1=O [Example 4] (cyclo(TWI[Dab]K[Dab][Dab]W[Dab][Dab][dV][Dab][dP]P)) | 0.75 µg/mL (≈ 0.466 µM) | >2.0 µg/mL | 1.50 µg/mL (≈ 0.932 µM) | 2.50 µg/mL (≈ 1.55 µM) | 1.50 µg/mL (≈ 0.932 µM) | >1 µg/mL | 0.6% | 40 µM
CC[C@H](C)[C@@H]1NC(=O)[C@H](Cc2c[nH]c3ccccc23)NC(=O)[C@H]([C@@H](C)O)NC(=O)[C@@H]2CCCN2C(=O)[C@H]2CCCN2C(=O)[C@H](CCN)NC(=O)[C@H](CCC(=O)O)NC(=O)[C@H](CCN)NC(=O)[C@H](CCN)NC(=O)[C@H](Cc2c[nH]c3ccccc23)NC(=O)[C@H](CCN)NC(=O)[C@H](CCN)NC(=O)[C@H](CCCCN)NC(=O)[C@H](CCN)NC1=O [Example 15] (cyclo(TWI[Dab]K[Dab][Dab]W[Dab][Dab]E[Dab][dP]P)) | 0.50 µg/mL (≈ 0.305 µM) | >2 µg/mL | 2.50 µg/mL (≈ 1.53 µM) | 2.25 µg/mL (≈ 1.37 µM) | 1.25 µg/mL (≈ 0.763 µM) | >1 µg/mL | 0.3% | 50 µM
CC[C@H](C)[C@@H]1NC(=O)[C@H](Cc2ccc(O)cc2)NC(=O)[C@H](CC(=O)O)NC(=O)[C@@H]2CCCN2C(=O)[C@H]2CCCN2C(=O)[C@H](CCN)NC(=O)[C@H](C)NC(=O)[C@H](CCN)NC(=O)[C@H](CCN)NC(=O)[C@H](Cc2c[nH]c3ccccc23)NC(=O)[C@H](CCN)NC(=O)[C@@H](CCN)NC(=O)[C@H](CCCN)NC(=O)[C@H](CCN)NC1=O [Example 43] (cyclo(DYI[Dab][Orn][dDab][Dab]W[Dab][Dab]A[Dab][dP]P)) | 0.13 µg/mL (≈ 0.0834 µM) | 2.00 µg/mL (≈ 1.28 µM) | 0.50 µg/mL (≈ 0.321 µM) | 2.00 µg/mL (≈ 1.28 µM) | 0.125 µg/mL (≈ 0.0802 µM) | 0.95 µg/mL | 0.5% | 50 µM

The next lines start with results.

MIC P. aeruginosa ATCC 27853 [1] | MIC P. aeruginosa IMP1 Livermore 3140 [4] | MIC P. aeruginosa P8191900 [5] | MIC P. aeruginosa P1021913 [6] | MIC P. aeruginosa P1021903 [7] | Average MIC [8] | Structure (SMILES) | Hemolysis at 100 μg/ml [2] | Cytotoxicity GI50 Hela cells [3]
0.75 µg/mL (≈ 0.467 µM) | >2 µg/mL | 1.50 µg/mL (≈ 0.933 µM) | 1.25 µg/mL (≈ 0.778 µM) | 2.00 µg/mL (≈ 1.24 µM) | >1 µg/mL | CC[C@H](C)[C@@H]1NC(=O)[C@H](Cc2c[nH]c3ccccc23)NC(=O)[C@H]([C@@H](C)O)NC(=O)[C@@H]2CCCN2C(=O)[C@H]2CCCN2C(=O)[C@H](CCN)NC(=O)[C@@H]2CCCN2C(=O)[C@H](CCN)NC(=O)[C@H](CCN)NC(=O)[C@H](Cc2c[nH]c3ccccc23)NC(=O)[C@H](CCN)NC(=O)[C@H](CCN)NC(=O)[C@H](CCCCN)NC(=O)[C@H](CCN)NC1=O [Example 17] (cyclo(TWI[Dab]K[Dab][Dab]W[Dab][Dab]P[Dab][dP]P)) | 0.5% | 29 µM
0.03 µg/mL (≈ 0.0193 µM) | 0.50 µg/mL (≈ 0.322 µM) | 0.06 µg/mL (≈ 0.0386 µM) | 0.25 µg/mL (≈ 0.161 µM) | 0.03 µg/mL (≈ 0.0193 µM) | 0.17 µg/mL | CC[C@H](C)[C@@H]1NC(=O)[C@H](Cc2c[nH]c3ccccc23)NC(=O)[C@H]([C@@H](C)O)NC(=O)[C@@H]2CCCN2C(=O)[C@H]2CCCN2C(=O)[C@H](CO)NC(=O)[C@H](C)NC(=O)[C@H](CCN)NC(=O)[C@H](CCN)NC(=O)[C@H](Cc2c[nH]c3ccccc23)NC(=O)[C@H](CCN)NC(=O)[C@@H](CCN)NC(=O)[C@H](CCCN)NC(=O)[C@H](CCN)NC1=O [Example 49] (cyclo(TWI[Dab][Orn][dDab][Dab]W[Dab][Dab]AS[dP]P)) | 0.1% | 50 µM
0.30 µg/mL (≈ 0.182 µM) | >2 µg/mL | 1.00 µg/mL (≈ 0.606 µM) | 0.75 µg/mL (≈ 0.455 µM) | 2.00 µg/mL (≈ 1.21 µM) | >1 µg/mL | CC[C@H](C)[C@@H]1NC(=O)[C@H](Cc2c[nH]c3ccccc23)NC(=O)[C@H]([C@@H](C)O)NC(=O)[C@@H]2CCCN2C(=O)[C@H]2CCCN2C(=O)[C@H](CCN)NC(=O)[C@H](C2CCCCC2)NC(=O)[C@H](CCN)NC(=O)[C@H](CCN)NC(=O)[C@H](Cc2c[nH]c3ccccc23)NC(=O)[C@H](CCN)NC(=O)[C@H](CCN)NC(=O)[C@H](CCCCN)NC(=O)[C@H](CCN)NC1=O [Example 11] (cyclo(TWI[Dab]K[Dab][Dab]W[Dab][Dab][Chg][Dab][dP]P)) | 0.5% | 50 µM
